# Experiments:
# Assay type in all cases: functional, cell-based
# [1] = system: SK-OV-3; experiment: The compound was evaluated for the cytotoxicity against human SKOV-3 (ovarian) tumor cell lines.
# [2] = system: CH1; experiment: The compound was evaluated for the cytotoxicity against human CH1 (ovarian) tumor cell lines.
# [3] = system: A2780; experiment: The compound was evaluated for the cytotoxicity against human A2780 (ovarian) tumor cell lines.
# [4] = system: HT-29; experiment: The compound was evaluated for the cytotoxicity against human HT-29 (colon) tumor cell lines.
# [5] = system: A2780cisR; experiment: The compound was evaluated for the cytotoxicity against human A2780cisR (ovarian) tumor cell lines.
Molecule,IC50 [1],IC50 [2],IC50 [3],"IC50 ([4]; Homo sapiens, HT-29)","IC50 ([5]; Homo sapiens, A2780cisR)",IC50 ([4]; ht-29),IC50 ([5]; a2780cisr)
CCOC(=O)CNC(=O)[C@@H](OC(=O)c1cc(OC)cc2c(C)cccc12)[C@]1(C)CO1,7300 nM,260 nM,340 nM,2250 nM,830 nM,,
CCOC(=O)[C@@H](NC(=O)[C@@H](OC(=O)c1ccc(C)c2cc(OC)ccc12)[C@]1(C)CO1)C(C)C,2950 nM,315 nM,350 nM,2250 nM,560 nM,,
CISPLATIN,,,,,,1700 nM,3000 nM
C[C@@]1([C@H](OC(=O)c2ccccc2)C(N)=O)CO1,> 25000 nM,> 25000 nM,20500 nM,> 25000 nM,> 25000 nM,,
COc1cc(C(=O)O[C@H](C(N)=O)[C@@]2(C)CO2)c2cccc(C)c2c1,2300 nM,62 nM,58 nM,610 nM,155 nM,,
C[C@@]1([C@H](OC(=O)c2cnc3ccccc3n2)C(N)=O)CO1,> 25000 nM,> 25000 nM,> 25000 nM,> 25000 nM,> 25000 nM,,
CO[C@@]12[C@H](COC(N)=O)C3=C(C(=O)C(C)=C(N)C3=O)N1C[C@@H]1N[C@@H]12 [MITOMYCIN],200 nM,40 nM,50 nM,40 nM,60 nM,,
CCOc1cc(C(=O)O[C@H](C(N)=O)[C@]2(C)CO2)c2cccc(C)c2c1,12000 nM,1400 nM,1800 nM,4300 nM,3500 nM,,
COc1cc(C(=O)O[C@H](C(N)=O)[C@]2(C)CO2)c2cccc(C)c2c1,1250 nM,< 50 nM,< 50 nM,330 nM,76 nM,,
C[C@@]1([C@H](OC(=O)c2cccc3ccccc23)C(N)=O)CO1,5100 nM,550 nM,440 nM,2150 nM,1100 nM,,
CC1([C@H](OC(=O)c2cccc3ccccc23)C(N)=O)CC1,> 25000 nM,> 25000 nM,> 25000 nM,> 25000 nM,> 25000 nM,,
C[C@@]1([C@H](OC(=O)c2ccc3ccccc3c2)C(N)=O)CO1,13000 nM,170 nM,390 nM,2600 nM,1350 nM,,

# Source: ChEMBL document CHEMBL1133374, “Chemical synthesis and cytotoxicity of some azinomycin analogues devoid of the 1-azabicyclo[3.1.0]hexane subunit” (Bioorg Med Chem Lett, 2000)
